Test results as given in patent publication US4560662A, “Streptomyces antibioticus ATCC 31771 and process for obtaining same” (priority 1981, dated 1985).
Values after ≈ are worked out from the molar mass of the structure shown. Where two headings read alike, the source gives them in different places.

Tests used:
[1] = test system: Staphylococcus aureus ATCC 6538 P; assay: Bacteriostatic power in solid medium (MIC), aerobic Gram positive; format: cell-based
[2] = test system: Staphylococcus aureus LRP 14; assay: as above; format: cell-based
[3] = test system: Streptococcus faecalis LRP 7; assay: as above; format: cell-based
[4] = test system: Streptococcus faecalis sub. zymogenes ATCC 12958; assay: as above; format: cell-based
[5] = test system: Streptococcus pneumonieae ATCC 6303; assay: as above; format: cell-based
[6] = test system: Streptococcus pneumonieae LRP 52; assay: as above; format: cell-based
[7] = test system: Streptococcus pneumonieae LRP 53; assay: as above; format: cell-based
[8] = test system: Streptococcus pyogenes ATCC 8668; assay: as above; format: cell-based
[9] = test system: Streptococcus pyogenes LRP 197; assay: as above; format: cell-based
[10] = test system: Corynebacterium diphteriae LRP 24; assay: as above; format: cell-based
[11] = test system: Micrococcus luteus ATCC 9341; assay: as above; format: cell-based
[12] = test system: Micrococcus luteus ATCC 15957; assay: as above; format: cell-based
Excerpt: (§1) Turning now to an examination of the novel macrolide antibiotics produced according to the present invention, they are all characterized by a bacteriostatic spectrum like that of erythromycin and by the stability in acidic environment, whereby their direct administration by oral route is possible, without having recourse to esters and/or salts, showing the afore mentioned disadvantages and problems. The above is confirmed by the following Table 1, wherein the MIC values are reported, indicating the bacteriostatic power, and by the Table 2, giving the stability values in acidic environment. Without having to be construed in a limiting sense, it seems plausible that the greater stability of the macrolide. antibiotics of the present invention can be attributed to the presence in the molecule of the antibiotic of the neutral sugar oleandrose (J. Antib. (1976) XXIX (7), 728).
(§2) Bacteriostatic power in solid medium of Erythromycin A, Erythromycin B,
(§3) aerobic and anaerobic bacteria, Gram positive and Gram negative minimum
(§4) inhibiting concentrations expressed in mcg/ml.

[13] = test system: Staphylococcus aureus ATCC 14154; assay: as above; format: cell-based
Excerpt: as §1, §2, §3, §4

Bacillus subtilis LRP 25 = assay: as above; format: cell-based
[14] = test system: Haemophilus influenzae ATCC 19418; assay: Bacteriostatic power in solid medium (MIC), aerobic Gram negative; format: cell-based
Excerpt: as §1, §2, §3, §4

[15] = test system: Pseudomonas aeruginosa LRP 9; assay: as above; format: cell-based
Excerpt: as §1, §2, §3, §4

Shigella sonnei LRP 5 = assay: as above; format: cell-based
Excerpt: as §1, §2, §3, §4

[16] = test system: Neisseria Gonorrhoeae ATCC 19424; assay: as above; format: cell-based
Escherichia coli LRP 50 = assay: as above; format: cell-based
[17] = test system: Klebsiella pneumoniae LRP 54; assay: as above; format: cell-based
[18] = test system: Proteus vulgaris ATCC 6380; assay: as above; format: cell-based
Salmonella typhi LRP 8 = assay: as above; format: cell-based
[19] = test system: Acholeplasma laidlawii ATCC 23206; assay: as above; format: cell-based
[20] = test system: Mycoplasma hominis I ATCC 14097; assay: as above; format: cell-based
[21] = test system: Clostridium perfrigens ATCC 3624; assay: Bacteriostatic power in solid medium (MIC), anaerobic; format: cell-based
[22] = test system: Bacteroides fragilis ATCC 23745; assay: as above; format: cell-based
[23] = test system: Fusobacterium necrophorum ATCC 27852; assay: as above; format: cell-based
physchem = format: physicochemical; details: for half-life: acidic environment
Excerpt: t 1/2 represents the half life time of the antibiotics as determined by
high pressure liquid phase chromatography (HPLC).

Which minimum inhibiting concentration ([1]; solid medium, LRP 39) does the source give for “3-O-oleandrosyl-5-O-desosaminyl-(8S)-8,19-epoxyerythronolide B [P 15153]” here?
Its minimum inhibiting concentration is 0.195 µg/mL.

What about the minimum inhibiting concentration ([2]; solid medium, LRP 14, Penycilline resistant) of the same molecule?
The minimum inhibiting concentration was 0.195 µg/mL.

What about the minimum inhibiting concentration ([3]; solid medium, LRP 7) of the same molecule?
Its minimum inhibiting concentration is 0.78 µg/mL.

What about the minimum inhibiting concentration ([4]; solid medium, LRP 61) of the same molecule?
The minimum inhibiting concentration was 0.39 µg/mL.

What about the minimum inhibiting concentration ([5]; solid medium, LRP 35) of the same molecule?
Its minimum inhibiting concentration is 0.049 µg/mL.

And the minimum inhibiting concentration ([6]; solid medium, LRP 52)?
Its minimum inhibiting concentration is 0.049 µg/mL.

And the minimum inhibiting concentration ([7]; solid medium, LRP 53)?
The minimum inhibiting concentration was 0.024 µg/mL.

And the minimum inhibiting concentration ([8]; solid medium, LRP 34)?
Its minimum inhibiting concentration is 0.049 µg/mL.

What about the minimum inhibiting concentration ([9]; solid medium, LRP 197) of the same molecule?
Its minimum inhibiting concentration is 0.049 µg/mL.

What about the minimum inhibiting concentration ([10]; solid medium, LRP 24) of the same molecule?
The minimum inhibiting concentration was 0.024 µg/mL.

What about the minimum inhibiting concentration ([11]; solid medium, LRP 6) of the same molecule?
The minimum inhibiting concentration was 0.024 µg/mL.

And the minimum inhibiting concentration ([12]; LRP 193, Erythromicina resistant)?
The minimum inhibiting concentration was greater than 25 µg/mL.

And the minimum inhibiting concentration ([13]; LRP 78, Erythromicina resistant)?
The minimum inhibiting concentration was greater than 25 µg/mL.

What about the minimum inhibiting concentration (Bacillus subtilis LRP 25; solid medium, LRP 25) of the same molecule?
Its minimum inhibiting concentration is 0.195 µg/mL.

What about the minimum inhibiting concentration ([14]; LRP 213) of the same molecule?
Its minimum inhibiting concentration is 12.5 µg/mL.

What about the minimum inhibiting concentration [15] of the same molecule?
Its minimum inhibiting concentration is greater than 25 µg/mL.

And the minimum inhibiting concentration (Shigella sonnei LRP 5)?
Its minimum inhibiting concentration is greater than 25 µg/mL.

What about the minimum inhibiting concentration ([16]; solid medium, LRP 214) of the same molecule?
The minimum inhibiting concentration was 0.195 µg/mL.

What about the minimum inhibiting concentration (Escherichia coli LRP 50; solid medium, LRP 50) of the same molecule?
The minimum inhibiting concentration was 25 µg/mL.

What about the minimum inhibiting concentration ([17]; solid medium, LRP 54) of the same molecule?
Its minimum inhibiting concentration is greater than 25 µg/mL.

And the minimum inhibiting concentration ([18]; solid medium, LRP 13)?
Its minimum inhibiting concentration is greater than 25 µg/mL.

What about the minimum inhibiting concentration (Salmonella typhi LRP 8; solid medium, LRP 8) of the same molecule?
The minimum inhibiting concentration was 25 µg/mL.

And the minimum inhibiting concentration ([19]; solid medium, LRP 204)?
Its minimum inhibiting concentration is 1.56 µg/mL.

What about the minimum inhibiting concentration ([20]; solid medium, LRP 211) of the same molecule?
Its minimum inhibiting concentration is greater than 25 µg/mL.

What about the minimum inhibiting concentration ([21]; LRP 206) of the same molecule?
The minimum inhibiting concentration was 3.12 µg/mL.

What about the minimum inhibiting concentration ([22]; solid medium, LRP 205, anaerobic) of the same molecule?
The minimum inhibiting concentration was 6.25 µg/mL.

And the minimum inhibiting concentration ([23]; solid medium, LRP 210, anaerobic)?
The minimum inhibiting concentration was 25 µg/mL.

What about the “t 1/2” value (physchem; pH 2.0, 25° C.) of the same molecule?
The value was 65 h.

With `CC[C@H]1OC(=O)[C@H](C)[C@@H](O[C@H]2C[C@H](OC)[C@@H](O)[C@H](C)O2)[C@H](C)[C@@H](O[C@@H]2O[C@H](C)C[C@H](N(C)C)[C@H]2O)[C@](C)(O)C[C@](C)(O)C(=O)[C@H](C)[C@@H](O)[C@H]1C` [P 15148, 3-O-oleandrosyl-5-O-desosaminyl-(8S)-8-hydroxyerythronolide B] as the molecule, how does the MIC ([1]; Staphylococcus aureus, ATCC6538, read-out: minimum inhibiting concentration) read?
The MIC was 1.56 µg/mL (≈ 2.17 µM).

What about the MIC ([2]; Staphylococcus aureus, LRP14, read-out: minimum inhibiting concentration) of the same molecule?
The MIC was 1.56 µg/mL (≈ 2.17 µM).

What about the MIC ([3]; Enterococcus faecalis, LRP7, read-out: minimum inhibiting concentration) of the same molecule?
Its MIC is 0.78 µg/mL (≈ 1.08 µM).

And the MIC ([4]; Enterococcus faecalis, ATCC12958, read-out: minimum inhibiting concentration)?
The MIC was 0.78 µg/mL (≈ 1.08 µM).

And the MIC ([5]; Streptococcus, ATCC6303, read-out: minimum inhibiting concentration)?
Its MIC is 0.195 µg/mL (≈ 0.271 µM).

And the MIC ([6]; Streptococcus, LRP52, read-out: minimum inhibiting concentration)?
The MIC was 0.195 µg/mL (≈ 0.271 µM).

And the MIC ([7]; Streptococcus, LRP53, read-out: minimum inhibiting concentration)?
Its MIC is 0.097 µg/mL (≈ 0.135 µM).

And the MIC ([8]; Streptococcus pyogenes, ATCC8668, read-out: minimum inhibiting concentration)?
Its MIC is 0.195 µg/mL (≈ 0.271 µM).

What about the MIC ([9]; Streptococcus pyogenes, LRP197, read-out: minimum inhibiting concentration) of the same molecule?
Its MIC is 0.195 µg/mL (≈ 0.271 µM).

What about the MIC ([10]; Corynebacterium, LRP24, read-out: minimum inhibiting concentration) of the same molecule?
The MIC was 0.097 µg/mL (≈ 0.135 µM).

What about the MIC ([11]; Micrococcus luteus, ATCC9341, read-out: minimum inhibiting concentration) of the same molecule?
Its MIC is 0.049 µg/mL (≈ 0.0681 µM).

What about the MIC ([12]; Micrococcus luteus, ATCC15957, LRP 193, Erythromicina resistant, read-out: minimum inhibiting concentration) of the same molecule?
The MIC was greater than 25 µg/mL.

What about the MIC ([13]; Staphylococcus aureus, ATCC14154, LRP 78, Erythromicina resistant, read-out: minimum inhibiting concentration) of the same molecule?
Its MIC is greater than 25 µg/mL.

What about the MIC (Bacillus subtilis LRP 25; Bacillus subtilis, LRP25, read-out: minimum inhibiting concentration) of the same molecule?
The MIC was 0.78 µg/mL (≈ 1.08 µM).

What about the MIC ([14]; Haemophilus influenzae, ATCC19418, LRP 213, read-out: minimum inhibiting concentration) of the same molecule?
Its MIC is greater than 25 µg/mL.

What about the MIC ([15]; Pseudomonas aeruginosa, LRP9, read-out: minimum inhibiting concentration) of the same molecule?
Its MIC is greater than 25 µg/mL.

And the MIC (Shigella sonnei LRP 5; Shigella sonnei, LRP5, read-out: minimum inhibiting concentration)?
The MIC was greater than 25 µg/mL.

What about the MIC ([16]; Neisseria gonorrhoeae, ATCC19424, read-out: minimum inhibiting concentration) of the same molecule?
Its MIC is 1.56 µg/mL (≈ 2.17 µM).

And the MIC (Escherichia coli LRP 50; Escherichia coli, LRP50, read-out: minimum inhibiting concentration)?
The MIC was greater than 25 µg/mL.

And the MIC ([17]; Klebsiella pneumoniae, LRP54, read-out: minimum inhibiting concentration)?
Its MIC is greater than 25 µg/mL.

What about the MIC ([18]; Proteus vulgaris, ATCC6380, read-out: minimum inhibiting concentration) of the same molecule?
The MIC was greater than 25 µg/mL.

And the MIC (Salmonella typhi LRP 8; Salmonella enterica, TYPHI, read-out: minimum inhibiting concentration)?
Its MIC is 25 µg/mL (≈ 34.7 µM).

And the MIC ([19]; Acholeplasma laidlawii, ATCC23206, read-out: minimum inhibiting concentration)?
Its MIC is 6.25 µg/mL (≈ 8.68 µM).

What about the MIC ([20]; Metamycoplasma hominis, ATCC14097, read-out: minimum inhibiting concentration) of the same molecule?
Its MIC is greater than 25 µg/mL.

And the MIC ([21]; Clostridium, ATCC3624, LRP 206, read-out: minimum inhibiting concentration)?
The MIC was 25 µg/mL (≈ 34.7 µM).

And the MIC ([22]; Bacteroides fragilis, ATCC23745, read-out: minimum inhibiting concentration)?
Its MIC is 6.25 µg/mL (≈ 8.68 µM).

And the MIC ([23]; Fusobacterium necrophorum, ATCC27852, read-out: minimum inhibiting concentration)?
The MIC was greater than 25 µg/mL.

And the half-life (physchem; pH 2)?
The half-life was 27 h.

What about the half-life (physchem; pH 3, read-out: t 1/2) of the same molecule?
Its half-life is greater than 100 h.

And the half-life (physchem; pH 4, read-out: t 1/2)?
Its half-life is greater than 100 h.
